The conditions of series [1]: for log k′w: pH 7.4.
The next series is described as follows: physchem. The following applies: pH 7.4.
Series [2] is described as follows: Reference logDoct at pH 7.4: literature shake-flask or countercurrent data, shake-vial and pH-metric determinations, averaged.
Series [3] is described as follows: Shake-vial logDoct, Procedure A (octanol / MOPS buffer). In kind it is physicochemical. The following applies: concentration decreased from 1.5 to 0.1 mg, 50:2 octanol:buffer. The text has this:
(§1) The vials were shaken at least overnight.

Series [4] can be described thus: Semi-automated shake-vial logDoct, Procedure B (1:1 n-octanol / phosphate buffer pH 7.4). It counts as physicochemical. The following applies: duplicate determinations.
Description: as §1

The conditions of series [5]: cited from earlier work.
Setting [6] is: Table 1, capacity factor extrapolated to 0% methanol, average of three to five determinations.
Setting [7] is: Table 1, own shake-vial (Procedure A/B) and/or potentiometric determinations only.
Setting [8] is: Table 1, average of own shake-vial/potentiometric determinations and literature references.
Setting [9] is: Table 1, average of literature references only, pH 7.4.

Values joined by “and” are separate entries in the source; they are usually repeats but may differ in a detail not shown here. Equal entries are not always repeated. Where two headings read alike, the source gives them in different places.

Broadly, the chromatographic logD is lipophilicity estimated from chromatographic retention. Read a low chromatographic logD as a more hydrophilic compound. On to `O=c1n(CCCN2CCN(c3cccc(Cl)c3)CC2)nc2ccccn12` [Trazodone], for which the “log k′w” value in series [1] (setting [6]) is recorded as 2.45. The chromatographic logD in “physchem” was found to be 2.97. The same molecule gave a logDoct in series [2] (setting [7]) of 2.54.
For `CNC(=NCCSCc1csc(N=C(N)N)n1)NC#N` [Tiotidine] the same measures were 0.57, 0.85 and 0.57.
Take `Oc1ncnc2[nH]ncc12` [Allopurinol]: the “log k′w” value in series [1] (setting [6]) is −0.27. The chromatographic logD in “physchem” was -0.1. Besides, in series [2] (setting [8]), the logDoct is listed as −0.44.
As to `CN1CCCC1c1cccnc1` (stereo not drawn) [Nicotine], the “log k′w” value in series [1] is on record as 0.02. Moreover, the chromatographic logD in “physchem” turned out to be 0.23. This molecule also yielded a logDoct in series [2] (setting [7]) of 0.40.
`CN/C(=N/CCSCc1nc[nH]c1C)NC#N` [Cimetidine]: the “log k′w” value in series [1] (setting [6]) is recorded as 0.17. The same molecule came in with a logDoct in series [2] (setting [7]) of 0.35.
Regarding `N=C(N)NCC1COc2ccccc2O1` (stereo not drawn) [guanoxan], the logDoct in series [3] is −1.6 to −1.0; in series [4], −0.1 and −0.3; in series [5] (literature value (ref. 22)) it was −0.83. Also, the chromatographic logD in “physchem” was -0.3.
Turning to `NS(=O)(=O)c1cc2c(cc1Cl)NC(C1CC3C=CC1C3)NS2(=O)=O` (stereo not drawn) [Cyclothiazide], in series [1] (setting [6]), the “log k′w” value is reported as 2.15. This molecule came in with a chromatographic logD in “physchem” of 2.63. The molecule also gave a logDoct in series [2] (setting [7]) of 2.09.
In the case of `CS(=O)(=O)c1ccc([C@@H](O)[C@@H](CO)NC(=O)C(Cl)Cl)cc1` [Thiamphenicol], the “log k′w” value in series [1] (setting [6]) is given as −0.05. Besides, the chromatographic logD in “physchem” was 0.15. Also, the logDoct in series [5] (setting [9]) is reported as −0.27.
As for `c1ccc2ncccc2c1` [Quinoline], the “log k′w” value in series [1] (setting [6]) is given as 1.52. Besides, the chromatographic logD in the series “physchem” is 1.92. In addition, the logDoct in series [5] (pH 7.4) is 2.03.
`CC(C)N(CCC(C(N)=O)(c1ccccc1)c1ccccn1)C(C)C` (stereo not drawn) [Disopyramide]: the “log k′w” value in series [1] (setting [6]) is given as −1.21. Also, the chromatographic logD in the series “physchem” is -1.15. Moreover, the logDoct in series [2] (setting [7]) is given as −0.66.
For `CNC(=C[N+](=O)[O-])NCCSCc1ccc(CN(C)C)o1` [Ranitidine], in “physchem”, the chromatographic logD is -0.5. This molecule returned a logDoct in series [2] (setting [7]) of −0.29.
With `O=[N+]([O-])c1ccc(/C=N/O)o1` [Nifuroxime], in series [1] (setting [6]), the “log k′w” value is recorded as 1.14. The chromatographic logD in “physchem” was 1.49. Also, the logDoct in series [5] (setting [9]) is on record as 1.28.
As to `CC(=O)CCCCn1c(=O)c2c(ncn2C)n(C)c1=O` [Pentoxifylline], the “log k′w” value in series [1] (setting [6]) is recorded as 0.03. The same molecule registered a chromatographic logD in “physchem” of 0.24. For the same molecule, the logDoct in series [5] (setting [9]) is 0.29.
Take `c1ccc(-c2ccc(C(c3ccccc3)n3ccnc3)cc2)cc1` (stereo not drawn) [Bifonazole]: the “log k′w” value in series [1] (setting [6]) was 4.33. In the series “physchem”, the chromatographic logD is 5.09. For the same molecule, in series [5] (setting [9]), the logDoct was 4.77.
Turning to `COc1ccc2c3c1O[C@H]1[C@@H](O)C=C[C@H]4[C@@H](C2)N(C)CC[C@@]341` [Codeine], the “Res (logDoct − ElogDoct)” value in series [1] (Table 1) is on record as −0.16. Further, the “log k′w” value in series [1] (setting [6]) is 0.16. This molecule came in with a chromatographic logD in the series “physchem” of 0.39. The logDoct in series [5] (setting [9]) is recorded as 0.23.
For the molecule `CN1C(=O)C(O)N=C(c2ccccc2Cl)c2cc(Cl)ccc21` (stereo not drawn) [Lormetazepam], the “Res (logDoct − ElogDoct)” value in series [1] (Table 1) is on record as −0.05. Moreover, in series [1] (setting [6]), the “log k′w” value is reported as 2.27. This molecule yielded a chromatographic logD in “physchem” of 2.77. Moreover, the logDoct in series [5] (setting [9]) is on record as 2.72.
For `COC(=O)[C@H]1[C@@H](OC(=O)c2ccccc2)C[C@@H]2CC[C@H]1N2C` [Cocaine], the “Res (logDoct − ElogDoct)” value in series [1] (Table 1) amounted to 0.57. The chromatographic logD in “physchem” was 0.48. The logDoct in series [5] (setting [9]) is 1.05.
Regarding `CCN(CC)CCNC(=O)c1cc(S(C)(=O)=O)ccc1OC` [Tiapride], the “log k′w” value in series [1] (setting [6]) is recorded as −0.58. This molecule also showed a chromatographic logD in the series “physchem” of -0.45. In addition, the logDoct in series [2] (setting [7]) is reported as −0.90.
Regarding `CN1CCN(CC(=O)N2c3ccccc3C(=O)Nc3cccnc32)CC1` [Pirenzepine], the “log k′w” value in series [1] (setting [6]) was −0.15. Besides, the chromatographic logD in the series “physchem” turned out to be 0.04. The molecule also returned a logDoct in series [2] (setting [7]) of −0.61.
`COc1ccc([C@@H]2Sc3ccccc3N(CCN(C)C)C(=O)[C@@H]2OC(C)=O)cc1` [Diltiazem]: the “log k′w” value in series [1] (setting [6]) is given as 1.59. Besides, the chromatographic logD in “physchem” is 2. The molecule further gave a logDoct in series [2] (setting [7]) of 2.06.
For `Cc1ncc([N+](=O)[O-])n1CCO` [Metronidazole], the “log k′w” value in series [1] (setting [6]) is given as −0.08. The same molecule displayed a chromatographic logD in the series “physchem” of 0.12. The logDoct in series [5] (setting [9]) is −0.02.
Take `NC(=O)N/N=C/c1ccc([N+](=O)[O-])o1` [Nitrofurazone]: in series [1] (setting [6]), the “log k′w” value is given as 0.29. In the series “physchem”, the chromatographic logD was 0.53. Further, in series [5] (setting [9]), the logDoct is on record as 0.23.
As to `CCCCNc1ccc(C(=O)OCCN(C)C)cc1` [Tetracaine], the “Res (logDoct − ElogDoct)” value in series [1] (Table 1) was 0.17. In addition, in series [1] (setting [6]), the “log k′w” value is recorded as 1.70. The molecule further gave a chromatographic logD in the series “physchem” of 2.12. Further, the logDoct in series [5] (setting [9]) is 2.29.
As to `NS(=O)(=O)c1cc2c(cc1Cl)NC(C(Cl)Cl)NS2(=O)=O` (stereo not drawn) [Trichlormethiazide], in series [1] (setting [6]), the “log k′w” value was 0.26. Also, in “physchem”, the chromatographic logD worked out at 0.5. Besides, the logDoct in series [2] (setting [7]) came to 0.43.
For `COc1ccc2c(c1)N(C[C@H](C)CN(C)C)c1ccccc1S2` [Methotrimeprazine], in series [1] (setting [6]), the “log k′w” value is 2.10. This molecule returned a chromatographic logD in the series “physchem” of 2.57. In series [2] (setting [7]), this molecule gave a logDoct of 2.77.
For the molecule `CNC(=C[N+](=O)[O-])NCCSCc1csc(CN(C)C)n1` [Nizatidine], the “log k′w” value in series [1] (setting [6]) is on record as −0.13. In the series “physchem”, this molecule showed a chromatographic logD of 0.06. The logDoct in series [5] (setting [9]) was −0.52.
Take `CNS(=O)(=O)Cc1ccc2[nH]cc(CCN(C)C)c2c1` [Sumatriptan]: in series [1] (setting [6]), the “log k′w” value is −0.54. The molecule further registered a chromatographic logD in the series “physchem” of -0.4. This molecule also gave a logDoct in series [2] (setting [8]) of −1.00.
In the case of `Clc1cccc(Cl)c1N=C1NCCN1` [Clonidine], in series [1] (setting [6]), the “log k′w” value is reported as 0.07. The molecule also had a chromatographic logD in “physchem” of 0.29. Further, in series [5] (setting [9]), the logDoct is 0.62.
In the case of `O=C1CN=C(c2ccccn2)c2cc(Br)ccc2N1` [Bromazepam], the “Res (logDoct − ElogDoct)” value in series [1] (Table 1) was 0.27. The “log k′w” value in series [1] (setting [6]) is reported as 1.04. In “physchem”, the chromatographic logD stood at 1.38. In series [5] (setting [9]), the logDoct is listed as 1.65.
Consider `Cc1ncc(-c2csc(N=C(N)N)n2)[nH]1` [Zaltidine], for which the “log k′w” value in series [1] (setting [6]) is given as 0.53. The molecule further showed a chromatographic logD in “physchem” of 0.8. Besides, the logDoct in series [2] (setting [7]) amounted to 0.74.
On to `COC1=CC(=O)C[C@@H](C)[C@]12Oc1c(Cl)c(OC)cc(OC)c1C2=O` [Griseofulvin], for which the “log k′w” value in series [1] (setting [6]) was 1.73. In the series “physchem”, this molecule displayed a chromatographic logD of 2.16. Also, in series [5] (setting [9]), the logDoct is 2.18.
